The target of one assay is T1, CebE^5601.
T1 construct: N-terminal His tag (pET28a); E. coli BL21(C43); Ni-NTA; labelled with red fluorescent dye
Description: microscale thermophoresis. In kind it is binding, Streptomyces sp. AMCC400023. To be noted: 25 °C; protein 800 nM, dye-labelled; ligand series from 100 µM. Background: In MST a laser heats a spot of the sample, and binding alters the fluorescence response.

The next assay deals with T2, CebE^7671.
T2 construct: N-terminal His tag (pET28a); E. coli BL21(C43); Ni-NTA
Description: microscale thermophoresis. As to conditions: 25 °C; protein 800 nM, dye-labelled; ligand series from 270 mM. The assay is classed as binding, Streptomyces sp. AMCC400023.

`OC[C@H]1O[C@@H](O[C@H]2[C@H](O)[C@@H](O)C(O)O[C@@H]2CO)[C@H](O)[C@@H](O)[C@@H]1O` (stereo partly shown) [cellobiose]: the Kd amounted to 0.977 µM at CebE^5601 and 1280 µM on CebE^7671.

As to `OC[C@H]1O[C@@H](O[C@H]2[C@H](O)[C@@H](O)[C@H](O[C@H]3[C@H](O)[C@@H](O)C(O)O[C@@H]3CO)O[C@@H]2CO)[C@H](O)[C@@H](O)[C@@H]1O` (stereo partly shown) [cellotriose], the figures for the Kd on CebE^5601 and on CebE^7671 were 1.61 µM and 2720 µM, respectively.

One may read the Kd as the constant that tells how readily two partners part at equilibrium. Read a low Kd as tighter binding.

These data come from article PMC10974276, “Physiological Functions of the Cello-Oligosaccharides Binding CebE in the Pathogenic Streptomyces sp. AMCC400023” (Microorganisms, 2024).
